Data published in article PMC8546149, “Antibiotic-chemoattractants enhance neutrophil clearance of Staphylococcus aureus” (Nature Communications, 2021).
Non-standard residues stand in square brackets, D forms with d. Residues, ends and D or L forms follow the SMILES beside them. *: point of attachment. Cha = N[C@@H](CC1CCCCC1)C(=O)O; For = O=C*

Assays:
human FPR1 [1] = target: T1, human FPR1 (Homo sapiens, UniProt P21462); assay: Calcium mobilization, CHO cells expressing FPR1; format: cell-based; conditions: mean ± SEM; for Emax: normalized to ATP 100 µM, read-out: [Ca2+]i mobilization FPR1 Emax; for EC50: read-out: [Ca2+]i mobilization FPR1 pEC50 (converted)
T1 construct: expressed in transfected cells
T1 sequence (P21462 1-350): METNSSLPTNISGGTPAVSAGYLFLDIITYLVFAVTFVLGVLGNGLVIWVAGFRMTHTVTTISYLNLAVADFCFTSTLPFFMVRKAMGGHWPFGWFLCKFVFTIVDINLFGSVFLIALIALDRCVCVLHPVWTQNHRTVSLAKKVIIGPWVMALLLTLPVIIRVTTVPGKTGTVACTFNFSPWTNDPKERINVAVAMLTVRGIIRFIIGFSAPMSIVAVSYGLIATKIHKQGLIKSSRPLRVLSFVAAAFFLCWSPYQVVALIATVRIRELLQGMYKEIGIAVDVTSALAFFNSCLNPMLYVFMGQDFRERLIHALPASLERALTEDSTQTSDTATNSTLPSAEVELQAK
Experimental: (§1) FlpIn Chinese hamster ovary (CHO) cells stably expressing either the human FPR1 or FPR2. Both of the cell lines were cultured in Dulbecco’s modified eagle medium (DMEM), which contained 10% foetal bovine serum (FBS, JRH Biosciences) and 500 µg/mL of the antibiotic hygromycin-B (Invitrogen Inc). Cells were grown at 37 °C in a humidified incubator containing 5% CO2 as described previously. Cells were seeded into 96-well tissue culture plates (4 × 10^4 cells/well) and after 6–8 h, cells were washed with PBS twice (50 µL/well in each washing step) and then starved by incubating in 90 µL/well of serum-free DMEM overnight at 37 °C in 5% CO2 before assaying for ERK1/2 phosphorylation (pERK1/2) and intracellular Ca^2+ mobilization.
(§2) For the calcium mobilization assay, the cells were plated and starved in the same manner as the pERK1/2 assay, before washing the cells once in HEPES buffered saline (HBS) solution [150 mM NaCl, 1.3 mM CaCl2, 5 mM KCl, 1 mM MgSO4.7H2O, 1.5 mM NaHCO3, 10 mM HEPES, and 10 mM D-glucose; pH 7.4]. Then the cells were incubated at 37 °C under 5% CO2 condition with HBS containing 0.5% (w/v) bovine serum albumin (BSA), 4 mM probenecid and 1 µM Fluo-8-AM (Abcam) for 1 h. FlexStation three plate reader (Molecular Devices) were used to determine Ca^2+ mobilization. The peak change in fluorescence signal was normalized to the vehicle (HBS solution) and the cellular response mediated by the positive control, adenosine triphosphate (ATP, 100 µM), and fitted with nonlinear regression curve in GraphPad Prism 9.0.
(§3) Non-linear regression was performed using GraphPrism 9.0. […] Significance was determined using Student’s unpaired t test, with two-tailed p values of <0.05 considered statistically significant.

human FPR2 [2] = target: T2, human FPR2 (Homo sapiens, UniProt P25090); assay: Calcium mobilization, CHO cells expressing FPR2; format: cell-based; conditions: mean ± SEM; for Emax: normalized to ATP 100 µM, read-out: [Ca2+]i mobilization FPR2 Emax; for EC50: read-out: [Ca2+]i mobilization FPR2 pEC50 (converted)
T2 construct: expressed in transfected cells
T2 sequence (P25090 1-351): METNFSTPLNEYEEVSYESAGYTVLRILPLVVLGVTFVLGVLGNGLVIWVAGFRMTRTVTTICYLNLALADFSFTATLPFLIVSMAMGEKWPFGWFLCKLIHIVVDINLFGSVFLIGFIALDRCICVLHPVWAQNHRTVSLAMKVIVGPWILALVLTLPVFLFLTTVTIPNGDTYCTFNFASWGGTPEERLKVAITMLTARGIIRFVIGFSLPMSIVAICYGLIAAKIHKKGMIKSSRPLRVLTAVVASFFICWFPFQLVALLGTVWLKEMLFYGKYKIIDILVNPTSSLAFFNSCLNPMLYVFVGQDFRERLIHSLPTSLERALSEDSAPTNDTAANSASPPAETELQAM
Experimental: as §1, §2, §3

human FPR2 [3] = target: T2, human FPR2; assay: ERK1/2 phosphorylation, CHO cells expressing FPR2; format: cell-based; conditions: 5 min, mean ± SEM; for Emax: normalized to 10% FBS; for EC50: read-out: ERK1/2 phosphorylation FPR2 pEC50 (converted)
Experimental: as §1
(§4) A time course was used to assess peak pERK1/2 phosphorylation for all the compounds. The positive control of 10% FBS, and serum-free DMEM as vehicle control. […] All the compounds were tested with time points taken at 0, 5, 7, 10, 20, 30.
(§5) For both the time course and concentration-response curves, the stimulation was terminated by the rapid removal of serum-free DMEM with agonists and adding 100 μL/well of SureFire lysis buffer. The detection step was performed according to the manufacturer’s instructions (AlphaScreen detection kit, PerkinElmer Life and Analytical Science)[49]. Data were normalized to the vehicle (serum-free DMEM) and the response elicited by 10% FBS, with nonlinear regression performed using GraphPad Prism 9.0.
as §3

human FPR1 [4] = target: T1, human FPR1; assay: ERK1/2 phosphorylation, CHO cells expressing FPR1; format: cell-based; conditions: 5 min, mean ± SEM; for Emax: normalized to 10% FBS; for EC50: read-out: ERK1/2 phosphorylation FPR1 pEC50 (converted)
Experimental: as §1, §4, §5, §3

[5] = tested on: pHrodo Red S. aureus BioParticles phagocytosed by human neutrophils; assay: Infection-on-a-chip phagocytosis (pHrodo fluorescence); format: cell-based; conditions: at 2 h
Experimental: For neutrophils used in microfluidic devices, de-identified fresh blood samples (10 mL) were purchased from Research Blood Components where blood samples were obtained from healthy volunteers aged ≥18 years who were not receiving immunosuppressant agents. Additionally, venous blood samples from healthy volunteers were collected by phlebotomy, after receipt of written informed consent, and under approval by the MGH Institutional Review Board (protocol 2008-P-002123). Neutrophils were isolated from whole blood using EasySep direct human neutrophil isolation kit (StemCell Technologies) as per the manufacturer’s instructions.
Use of this microfluidic device for monitoring migration of neutrophils and control of the S. aureus growth in cell culture medium has been outlined in detail previously. Briefly, microfluidic devices were primed with S. aureus (SH1000-GFP, 1 × 10^6/mL) in culture media (Iscove’s Modified Dulbecco’s Medium + 10% Fetal Bovine Serum) by loading the outer chamber and applying vacuum to draw bacteria into the inner chambers. The outer chamber was then washed by pushing 200 µL of media through the device using a pipette, and loaded with neutrophils (5.5 × 10^6/mL, stained with Hoechst 33342 dye, 10 min at 32 μM). Additionally, neutrophil phagocytosis was monitored by using pHrodo Red S. aureus BioParticles® (Life Technologies) in replace of live S. aureus cells. BioParticles were used at a final concentration of 1 × 10^7/mL, which gave 50–100 BioParticles within the microchamber. The concentration of cells were determined by hemocytometer.
Kinetics of neutrophil migration, S. aureus growth and phagocytosis was determined using imaging with an automated Nikon Eclipse TiE inverted wide-field microscope with stage control and perfect focus system run through the Nikon NIS element v4. The biochamber was maintained temperature at 37 °C and CO2 at 5% for the 8 h of the experiment, where images were captured every 5 min for each field of view (FOV), with at least 4 FOV captured per experimental condition. For each experimental condition at least 12 chambers were tracked for neutrophil migration using the FIJI[64] plugin Trackmate[65]. The percentage of neutrophils recruited into the chamber was determined relative to the total number of neutrophils in each FOV divided by the number of chambers visible. Data were averaged and the results from at least 3 donors plotted. The pHrodo or S. aureus GFP fluorescence within the microchamber was calculated by thresholding the image and measuring the area in FIJI[36]. Data were plotted using GraphPad Prism 8 software (GraphPad Software, San Diego, CA, USA).

[6] = target: T3, formyl peptide receptor 1 (FPR1) (human, UniProt P21462 1-350)
T3 sequence (looked up): T1 sequence (P21462 1-350)

[7] = tested on: FPR2 of human neutrophils; assay: FPR competition binding assay with RhB-PB10; conditions: 8 µM peptide, 5 min, after RhB-PB10 15 µM 1 h, Bis-Tris pH 6
Experimental: A competition binding assay was performed based modification of the previous method. To determine the interaction of the formylated peptides with FPR2 of human neutrophils the fluorescently labelled FPR2 antagonist RhB-PB10 was used. RhB-PB10 was synthesized by solid-phase peptide synthesis on Wang resin. After initial acylation with Fmoc-L-Arg(Pbf)-OH, peptide elongation was performed using a solution of 20% piperidine for Fmoc removal and DIC/ Oxyma for Fmoc-amino acid or Rhodamine B coupling. After completion of the sequence, the peptide was cleaved from the resin and protecting groups were removed via TFA cleavage. Following concentration, the peptide was precipitated using diethyl ether, collected by centrifugation on a spark-resistant centrifuge and purified using RP-HPLC.
RhB-PB10 (15 μM) was preincubated with human neutrophils (5 × 10^6 neutrophils/mL) in Bis-Tris buffer pH 6 for 1 h. […] Any RhB-PB10 that was competed off by the peptides was then removed by washing in Bis-Tris buffer. Rhodamine B fluorescence levels of each sample were determined using microplate reader (Clariostar plate reader, BMG) with ex 550 nm, em 585 nm.

Row | Compound | Emax (human FPR1 [1]) | Emax (human FPR2 [2]) | Emax (human FPR2 [3]) | Emax (human FPR1 [4]) | area of pHrodo fluorescence per neutrophil recruited into the microchamber ([5]; donor 2) | area of pHrodo fluorescence per neutrophil recruited into the microchamber ([5]; donor column 1) | area of pHrodo fluorescence per neutrophil recruited into the microchamber ([5]; donor column 3) | area of pHrodo fluorescence per neutrophil recruited into the microchamber ([5]; donor column 4) | other results
1 | CN[C@H](CC(C)C)C(=O)N[C@H]1C(=O)N[C@@H](CC(N)=O)C(=O)N[C@H]2C(=O)N[C@H]3C(=O)N[C@H](C(=O)N[C@H](C(=O)NCCCn4cc(C[C@H](NC(=O)CNC(=O)[C@H](Cc5ccccc5)NC(=O)[C@H](CC(C)C)NC(=O)[C@H](CCSC)NC=O)C(N)=O)nn4)c4cc(O)cc(O)c4-c4cc3ccc4O)[C@H](O)c3ccc(c(Cl)c3)Oc3cc2cc(c3O[C@@H]2O[C@H](CO)[C@@H](O)[C@H](O)[C@H]2O[C@H]2C[C@](C)(N)[C@H](O)[C@H](C)O2)Oc2ccc(cc2Cl)[C@H]1O [C1, Van-C(fMLFG-Tz)] | 34 ± 8% | 45 ± 10% | 99 ± 9% | 77 ± 8% | – | – | – | – | –
2 | CN[C@H](CC(C)C)C(=O)N[C@H]1C(=O)N[C@@H](CC(N)=O)C(=O)N[C@H]2C(=O)N[C@H]3C(=O)N[C@H](C(=O)N[C@H](C(=O)NCCCn4cc(C[C@H](NC(=O)CNC(=O)[C@H](Cc5ccccc5)NC(=O)[C@H](CC5CCCCC5)NC(=O)[C@H](CCSC)NC=O)C(N)=O)nn4)c4cc(O)cc(O)c4-c4cc3ccc4O)[C@H](O)c3ccc(c(Cl)c3)Oc3cc2cc(c3O[C@@H]2O[C@H](CO)[C@@H](O)[C@H](O)[C@H]2O[C@H]2C[C@](C)(N)[C@H](O)[C@H](C)O2)Oc2ccc(cc2Cl)[C@H]1O [C11, Van-C(fM-Cha-FG-Tz)] | 24 ± 3% | 27 ± 3% | 84 ± 4% | 83 ± 3% | – | – | – | – | –
3 | CSCC[C@H](NC=O)C(=O)N[C@@H](CC(C)C)C(=O)N[C@@H](Cc1ccccc1)C(=O)NCC(N)=O [FP1, fMLFG-NH2] (For-MLFG-NH2) | 27 ± 4% | 34 ± 7% | 82 ± 7% | 86 ± 8% | – | – | – | – | EC50 (human FPR1 [1]): 6.76 nM; EC50 (human FPR2 [2]): 1350 nM; EC50 (human FPR2 [3]): 2880 nM; EC50 (human FPR1 [4]): 2.51 nM
4 | CSCC[C@H](NC=O)C(=O)N[C@@H](CC1CCCCC1)C(=O)N[C@@H](Cc1ccccc1)C(=O)NCC(N)=O [FP11, fM-Cha-FG-NH2] (For-M[Cha]FG-NH2) | 27 ± 4% | 43 ± 13% | 81 ± 9% | 90 ± 8% | – | – | – | – | EC50 (human FPR1 [1]): 9.55 nM; EC50 (human FPR2 [2]): 1320 nM; EC50 (human FPR2 [3]): 1860 nM; EC50 (human FPR1 [4]): 2.19 nM
5 | CSCC[C@H](NC=O)C(=O)N[C@@H](CC(C)C)C(=O)N[C@@H](Cc1ccccc1)C(=O)O [fMLF, N-formyl-Met-Leu-Phe, reference compound] | – | 18 ± 4% | 99 ± 27% | – | – | – | – | – | –
6 | Van-C(fML-Tyr-G-Tz) [C19] | – | – | – | – | 3.5 | 9.2 | 7.8 | 2.6 | –
7 | Van-C(fMLF-Leu-Tz) [C18] | – | – | – | – | 4.4 | 7.9 | 2.1 | 1.8 | –
8 | fMChaFG = van (fMChaFG conjugated to the C-terminus of vancomycin) (peptide) | – | – | – | – | – | – | – | – | ERK1/2 phosphorylation at 5 min in CHO cells overexpressing human FPR1, potency of the conjugate against the free peptide (lower potency) [6]: 10 fold; calcium mobilization in CHO cells overexpressing human FPR1, potency of the conjugate against the free peptide (lower potency) [6]: > 90 fold
9 | fMIVIL [FPR2 specific agonist (Auspep)] | – | – | – | – | – | – | – | – | RhB-PB10 binding to neutrophils relative to control (=1) ([7]; replicate 1): 0.81; RhB-PB10 binding to neutrophils relative to control (=1) ([7]; replicate 2): 0.79; RhB-PB10 binding to neutrophils relative to control (=1) ([7]; replicate 3): 0.62; RhB-PB10 binding to neutrophils relative to control (=1) ([7]; replicate 4): 0.75; RhB-PB10 binding to neutrophils relative to control (=1) ([7]; replicate 5): 0.7
10 | fML-Tyr-G-NH2 [FP12] | – | – | – | – | 4.1 | 4.7 | 1.5 | 2.8 | –
11 | fMLF-Leu-NH2 [FP19] | – | – | – | – | 7.8 | 6.5 | 1.5 | 2.3 | –
